Where only a bound is given, the exact number is not on record here.

Molecule `CC(Cl)C(=O)c1ccc2c(c1)CCCC(=O)N2` (centres undefined) had a melting point of 230 °C.
With `CCOC(=O)c1oc(SC)c2c1CCc1sc(-c3ccccc3)nc1-2` the figure was 170 to 171 °C.
Turning to `COc1nc(C)c(C(C)OC(=O)CCC(=O)O)cc1NC(=O)N1CCN(c2cc(C)cc(C)c2)CC1` (centres undefined), the melting point fell in the range of 138 to 140 °C.
In the case of `Cc1cc2c(cc1C)C1(O)C(=O)c3ccccc3C1(O)O2` (centres undefined), the melting point is 198 to 200 °C.
For the molecule `Cc1noc(NS(=O)(=O)c2ccc(-c3ccccc3)s2)c1Br`, the melting point amounted to 132 °C.
For the molecule `CN(C)c1nc2sc3c(NCCCN4CCCC4=O)ncnc3c2c2c1CC(C)(C)C2`, the melting point fell in the range of 184 to 186 °C.
The value for `Cn1cc(Cl)cc(Br)c1=O` was 162 to 163 °C.
With `CCCOc1ccccc1-c1nc2n(C(C)(C)C)[nH]cc-2c(=O)n1` the figure was 130 to 131 °C; with `COc1cc(N)ccc1C(=O)O`, 144 to 146 °C; with `CNC(=O)c1cc2c(nc(C)n2C)c(O)c1CCC(=O)c1ccccc1`, 284 to 285 °C.
With `CSc1ccc(-c2ccc(C(CCC(=O)O)=NO)cc2)cc1` the figure was 162 to 164 °C; with `O=c1[nH]c(-c2ccc(Cl)cc2)c(CN2CCOCC2)s1`, 206 °C.
`CCOc1ccc(N)nc1C` had a melting point of 93 to 96 °C.
With `CCN(CC)C(=O)Nc1ccc2c(c1Cl)C(c1ccccc1F)=NCC(=O)N2C` the figure was 190 to 191 °C; with `CCOC(=O)C(Cc1ccc(OCC=C(C)c2ccc(-c3ccc(C(C)=CCOc4ccc(CC(OCC)C(=O)OCC)cc4)cc3)cc2)cc1)OCC` (centres undefined), 100 to 106 °C.
Molecule `CC(COc1ccc(CC2SC(=O)NC2=O)cc1)N1CC(COc2cccc(Cl)c2)OC1=O` (centres undefined) displayed a melting point of 48 to 53 °C.
The value for `Cc1c(F)cccc1Cc1c(-c2ccccc2)c2cc(O)cnn2c1C(=O)N1CCN(C(=O)OC(C)(C)C)CC1` was 165 °C.
Molecule `COc1cc(COc2ncccc2C#N)ccc1OCc1nc(-c2ccco2)oc1C` displayed a melting point of 137 to 138 °C.
For the molecule `CC[C@H]1[C@@H](N)CN1c1cc2c(cc1F)c(=O)c(C(=O)O)cn2C1CC1` (relative stereo), the melting point was in the range of 236 to 237 °C.
For the molecule `CCOc1nc(N2CCNCC2)nc(N2CCSCC2)c1[N+](=O)[O-]`, the melting point was in the range of 166 to 168 °C.
With `CS(=O)(=O)c1nnc(C(F)(F)F)s1` the figure was 84 °C; with `CS(=O)(=O)n1c(C#N)nc2cc3c(cc21)OC(F)(Cl)C(F)(Cl)O3` (centres undefined), 123 to 126 °C.
With `O=c1[nH]c(Nc2ccccc2)nc2c1ncn2CCO` the figure was 338 to 339 °C.
With `CC(=O)n1cc(Cn2ccnc2)c2ccccc21` the figure was 122 °C; with `Cc1ccccc1C(=O)c1ccc(C(=O)O)o1`, 155 to 157 °C; with `C[C@@H]1C(=O)C[C@H]2C[C@@H]1OO[C@@]2(C)/C=C/c1cc(C(F)(F)F)nc2c(Cl)cc(Cl)cc12`, 196 °C.
In turn, `COc1cccc(/C=C/C(=O)/C=C/c2cccc(OC)c2OC)c1OC` registered a melting point of 106 to 108 °C.
With `O=C(O)/C=C/n1cnc2ccc(OCCO)cc2c1=O` the figure was 247 to 248 °C; with `CCCCc1c(Cl)nc(N)nc1-c1ccccc1`, 183 to 185 °C; with `COc1ccc(COC(=O)C2=C3[C@H]4CCCC[C@H]4[C@@H]3S[C@@H]3[C@H](NC(=O)Cc4ccccc4)C(=O)N23)cc1`, 234 to 236 °C.
`COc1c(F)cc2c(O)c(C(=O)NCc3ccc(Cl)cc3)cnc2c1F` displayed a melting point of 217 to 219 °C.
`CC(=O)Nc1cc(C(C)(C)C)nn1C(CCN1C(=O)c2ccccc2C1=O)=NOS(=O)(=O)c1ccc(C)cc1` gave a melting point of 195 to 201 °C.
Regarding `CC(C)(C)NC(=O)[C@@H]1CSCN1C(=O)OCc1ccccc1`, the melting point lay within 96 to 98 °C.
As to `O=C(O)c1ccc(OCC2COC(=O)N2c2ccc(Cl)cc2)cc1` (centres undefined), the melting point was 219 to 221 °C.
With `CC(C)(O)C#Cc1ccc(F)cc1` the figure was 124 °C.
With `Nc1c(NCCCOc2cc(CN3CCCCC3)ccn2)c(=O)c1=O` the figure was 226 to 228 °C; with `Clc1ccc(C2Nc3ccccc3S2)cc1` (centres undefined), 85 to 87 °C; with `Clc1ccc(Cc2c(Cl)nc3ncnn3c2Cl)cc1`, 165 to 167 °C.
With `CCOC(=O)C1=C(C)Nc2nc(N3CCOCC3)nc(N3CCOCC3)c2C1c1cccnc1` (centres undefined) the figure was 229 °C.
The molecule `N#Cc1cnc2c(sc3ccc([N+](=O)[O-])cc32)c1Nc1cccc(Br)c1` displayed a melting point of over 300 °C.
With `O=C(NC(=O)c1c(F)cccc1F)Nc1ccc(Oc2ccc(Cl)cc2)c(Cl)c1` the figure was 194 to 196 °C; with `O=C(NC1CCCc2ccccc21)c1ccc([N+](=O)[O-])cc1` (centres undefined), 156 to 157 °C.
The value for `COC(=O)C(C)(C)OCC#Cc1cc(Cl)ccc1NS(=O)(=O)c1ccc(OC)cc1` was 98 to 100 °C; that for `CCOC(=O)c1cc(SCc2ccccc2)c(Sc2ccccc2)c(S(N)(=O)=O)c1` was 151 to 152 °C; that for `COc1nc2cnccc2nc1NS(=O)(=O)c1cccc(Cl)c1Cl` was 256 to 257 °C.
For `CC1CC2C3CC(Cl)C4=CC(=O)C=CC4(C)C3(Cl)C(O)CC2(C)C1C(=O)CO` (centres undefined), the melting point stood at 230 °C.
The molecule `O=C1NC(=S)NC1=Cc1cc(O)c(O)c([N+](=O)[O-])c1` displayed a melting point of over 350 °C.
With `O=c1c2ccccc2c(-c2ccccc2)cn1CC1CO1` (centres undefined) the figure was 148 °C; with `O=C(Nc1ccccc1Oc1ccc(Cl)cc1)C1CCNCC1`, 138 to 140 °C; with `CCc1cc(C(C)=O)c(O)cc1OCCCCCNC(C)=O`, 115 to 116 °C.
The value for `CS(=O)(=O)Nc1cc2c(cc1Oc1ccccc1)C(=O)C(Sc1ccccc1)C2` (centres undefined) was 86 °C; that for `CCOC(=O)C1=Cc2cc(Cl)cc(C#CCCCCl)c2OC1C(F)(F)F` (centres undefined) was 84.8 to 85.9 °C.
With `NS(=O)(=O)c1cccc(C(O)C(F)(F)F)c1` (centres undefined) the figure was 130 to 132 °C.
In turn, `CC(C)c1cc(C(=O)Nc2ccc(C(=O)O)c(F)c2)sc1C(C)C` displayed a melting point of 133 to 135 °C.
Take `CCC(=O)NC1=NN(c2ccccc2)CC1`: the melting point lay within 170 to 171 °C.
With `COC(=O)c1ccc(NC(=O)Cc2ccc(OC)c(C34CC5CC(CC(C5)C3)C4)c2)cc1` the figure was 146 to 147 °C.
For `Cc1nc(C#Cc2ccccc2)sc1C`, the melting point was in the range of 55 to 60 °C.
Consider `CN1C(C)(C)CC(OC(=O)CCC(C)(c2ccc(O)c(C(C)(C)C)c2)c2ccc(O)c(C(C)(C)C)c2)CC1(C)C`, for which the melting point turned out to be 203 °C.
With `CC(C)COC(=O)Nc1cc(Cl)cc(Cl)c1` the figure was 75 °C.
Turning to `O=C1NC2(CCCC2)CCCC1Cl` (centres undefined), the melting point was 109 to 111 °C.
As to `Cc1ccccc1S(=O)(=O)NC(=O)c1csc(Cc2ccc3oc(-c4nc(C(C)(C)C)cs4)cc3c2)n1`, the melting point lay in the range of 201 to 203 °C.
With `O=C(Nc1cnccn1)N1CCN(c2nc(-c3cccc(F)c3)cs2)CC1` the figure was 158 to 159 °C; with `CCO[C@H]1c2ccc3c(nc(C)n3C)c2N[C@H](c2ccccc2)[C@H]1O`, 170 °C; with `COc1c(C)c2c(c(NS(C)(=O)=O)c1C/C=C(\C)CCC(=O)O)C(=O)OC2`, 170 to 176 °C.
The value for `COc1ccc(C(=O)c2cc3c(ccc4ccccc43)oc2=O)cc1` was 158 to 160 °C; that for `CON(C)C(=O)CCc1oc(-n2ccnc2C)nc1-c1ccc(Cl)cc1` was 116 to 117 °C; that for `COc1cc(OC)n2ncc(Br)c2n1` was 188 to 190 °C.
In turn, `O=C1CCCc2c1c1cccc3c1n2CC3` came in with a melting point of 208 to 210 °C.
With `COc1cc(C)c(S(=O)(=O)c2cccc(C)c2)cc1OC` the figure was 135 to 140 °C; with `O=C(O)C1CCN(c2ncc(NS(=O)(=O)C(F)(F)F)c(NCc3ccccc3)n2)CC1`, 160 °C.
With `Fc1ccc(-c2[nH]nc(C3=CC4CCCN4CC3)c2-c2ccncc2)cc1` (centres undefined) the figure was 204 to 208 °C.
The value for `O=C(N[C@@H]1CN(C2CCCCC2)C[C@H]1O)c1ccccc1` (relative stereo) was 154 to 156 °C; that for `CC(=O)Nc1ccc(CCCON2CCC(C(=O)c3nc4ccccc4s3)CC2)cc1` was 171 to 172 °C; that for `CCOC(=O)C1=C(COCCOCCN)NC(C)=C(C(=O)OC)C1c1cccc(Cl)c1Cl` (single isomer, unassigned; (-)) was 69 to 71 °C.
Consider `O=C(NC[C@@H](C(=O)NO)N1CCCCC1)c1ccc(OCc2ccncc2)cc1`, for which the melting point was found to be 190 °C.
The molecule `CCOC(=O)CCc1cc2ccccc2c(-c2ccccc2)n1` registered a melting point of 109 °C.
For the molecule `CC(=O)N=NCc1ccc(OCCCCCOc2ccc(C(=O)N(C(C)C)C(C)C)c(Cl)c2)cc1`, the melting point was in the range of 59 to 61 °C.
For `O=[N+]([O-])c1cc2c(Nc3cccc(Cl)c3)ncnc2cc1F`, the melting point fell in the range of 223 to 225 °C.
With `Cc1c(NC(=O)C(CSC(=O)CC(C)C)Cc2ccccc2)cccc1C(=O)O` (centres undefined) the figure was 118 to 120 °C; with `COc1ccc(C(=O)c2cc(F)ccc2F)c(O)c1`, 109 °C.
Turning to `O=C(O)c1cccc([N+](=O)[O-])c1O`, the melting point is 123 °C.
`OCn1cc(-c2cc3nccnc3[nH]2)c2ccccc21` displayed a melting point of over 320 °C.
The value for `Oc1ccc(Cl)cc1I` was 79 to 82 °C; that for `O=C1Nc2ccc(Cl)cc2C(c2ccccc2)=NC1OCCc1ccc(O)cc1` (centres undefined) was 222 to 230 °C.
The value for `N#CCCn1cc(-c2cccc(Cl)c2Cl)c(C(F)(F)F)c1` was 83 to 85 °C; that for `CCCCCC(C(=O)O)n1cnc2cc(-c3ccccc3-c3nn[nH]n3)ccc21` (centres undefined) was 123 to 130 °C.
With `Cc1cccc(Nc2nc(-c3ccc(-c4ccccc4)cc3)cs2)n1` the figure was 218 to 222 °C; with `O=C(O)C1Oc2ccc(Cl)cc2C(c2ccccc2)(c2ccccc2)O1` (centres undefined), 226 °C; with `CC(=O)N(c1nc(N)no1)c1c(Cl)cccc1Cl`, 164 to 165 °C.

In general, melting point refers to the temperature of the solid-liquid transition.

These data come from a melting point compilation (Tetko et al.; mined from patent text by program, amines drawn as free bases though some values may be those of a salt).
